Measurements from patent US6338963B1, “Use of carbon monoxide dependent guanylyl cyclase modifiers to stimulate neuritogenesis” (NeoTherapeutics, Inc., priority 1994, dated 2002).

How the values were obtained:
[1] = test system: NGF mRNA; test: Northern/slot blot of neurotrophin mRNA from astrocytes: NGF; assay type: cell-based, NIH Swiss mice; set-up: key to NGF mRNA: The conditions which produced a detectable amount of each of the neurotrophin mRNAs are indicated by a “+”; a “++” indicating that at least twice the detectable amount was present; Those blots which were negative are indicated by a “−”; settings: for NGF mRNA: 24 hours
Protocol: Induction of neurotrophin mRNA was determined by northern blot analysis of astrocytes cultured with AIT-082, NGF, or both. The cells were harvested and RNA extracted at 24 hours after treatment.
More particularly, astrocytes from the cerebral cortex of NIH Swiss mice (Harlan) were isolated. Briefly, newborn pups (0-24 hours) were decapitated. Their brains were removed under aseptic conditions and were placed in modified Dulbecco's medium (DMEM) containing 20% heat-inactivated horse serum (Hyclone) (“complete medium”). The neopallium was then dissected from each cerebral hemisphere and minced into 1 mm cubes.
The astrocytes were then isolated by mechanical dissociation. The cubes were vortexed at maximum speed for one minute. The cell suspension was then passed first through 75 mm Nitex then through 10 mm Nitex. The resulting cell suspension was diluted in complete medium to a final concentration of one brain per 10 ml of complete medium. Ten milliliters of the diluted cell suspension was added to each 100 mm Falcon tissue culture plate (Fisher). After 3 days the medium was replaced with 10 ml fresh complete medium and subsequently was replaced twice weekly with DMEM containing 10% heat inactivated horse serum (“growth medium”). After two weeks in culture the astrocytes formed a confluent monolayer.
For RNA extraction, astrocytes were trypsinized. The astrocytes were then replated onto 100 mm PORN coated plates at a cell density of 10^6 cells per plate (10 ml growth medium). After 2 hrs PBS, guanosine (Guo), or GTP at 10 mM were added to the appropriate plates. Total RNA was harvested from 1.5×10^7 cells for each treatment, 4 and 24 hrs after treatment using TRIzol reagent and supplier protocol (GIBCO BRL/Life Technologies, Inc.). For slot blots, total RNA was bound to Hybond-N filters (Amersham/United States Biochemicals) as described in Transfer and Immobilization of Nucleic Acids and Proteins to S & S Solid Supports (S and S Protocols: Schleicher & Schuell, New Hampshire, USA). Northern blots were also performed using […] total RNA from each sample. These were electrophoresed in 1% agarose gels containing formaldehyde and blotted onto Hybond-N filters according to S and S protocols.
The blots were probed with ^32P-labeled cDNA (NGF, NT-3 and BDNF probes) or oligonucleotide probe (FGF-2) by hybridization in Piperazine-N,N′-bis-(2-ethanesulfonic acid) (PIPES) buffer (50 mM PIPES, pH 6.8; 50 mM NaH2PO4; 0.1 M NaCl; 5% SDS and 1 mM EDTA) overnight at 50° C. […] Various concentrations ([…] of total RNA), as determined by spectrophotometry, of each sample were blotted and probed so that quantification could be done after insuring a linear film response. Quantification was performed using MCID Image Analysis (St. Catherine's, Ontario, Canada). […]

[2] = test system: TGFβ2; test: TGFβ2 release from rat cultured astrocytes (ELISA); assay type: cell-based
Protocol: NGF and TGFβ2 levels were assayed in the culture medium of the astrocytes by specific ELISA assays using kits from Roche (Germany) and Promega (USA) respectively. NGF basal levels were 56.3±3.2 pg/ml. TGFβ2 levels were 9.1±0.06 pg/ml.
In FIG. 61, the dose-response curves of NGF and TGFβ2 release from rat cultured astrocytes as the result of exposure to AIT-082 are shown.

[3] = test system: NGF; test: Western blot of astrocyte cytosolic proteins: NGF; assay type: cell-based, rat
Protocol: (§1) Western blot analysis of cytosolic proteins from cultured astrocytes was performed to detect the factors NGF and TGFβ2. The results are shown in FIG. 58A for NGF at 6 and 12 hours and in FIG. 58B for TGFβ2 at 6 and 12 hours.
(§2) Western blot analysis of cytosolic proteins deriving from cultured astrocytes treated for 6 or 12 hours with 100 μM AIT-082 was performed. AIT-082 is able to promote the production of neurotrophic factors from rat cultured astrocytes as measured by Western blot analysis. The results are shown in FIG. 62A for NGF and in FIG. 62B for TGFβ2. Electrophoresis was performed in 12% (for NBF) or 15% (for TGFβ2) SDS-PAGE (20 μg of total protein per lane). The separated proteins were transferred onto a PVDF membrane (Bio-Rad Laboratories, Italy).

[4] = test system: TGFβ2; test: Western blot of astrocyte cytosolic proteins: TGFβ2; assay type: cell-based, rat
Protocol: as §1, §2

O=C(CCn1cnc2c(=O)[nH]cnc21)Nc1ccc(C(=O)O)cc1 [AIT-082, N-4-carboxyphenyl-3-(6-oxohydropurin-9-yl)propanamide]
NGF mRNA ([1]; AIT-082 100 mM): ++
NGF mRNA ([1]; AIT-082 + NGF (40 ng/ml)): +
increase of TGFβ2 production as compared to a control ([2]; rat cultured astrocytes): 1.7 fold
intracellular levels of NGF ([3]; 100 μM AIT-082, 6 or 12 hours): increased in time-dependent manner
intracellular levels of TGFβ2 ([4]; 100 μM AIT-082, 6 or 12 hours): increased in time-dependent manner

Nc1nc2c(ncn2[C@@H]2O[C@H](CO)[C@@H](O)[C@H]2O)c(=O)[nH]1 [guanosine]
NGF mRNA in astrocytes ([1]; guanosine, 4 hours after addition): increased
release of TGFβ2 from astrocytes ([2]; exposure for 24 hours): dose-dependent increase
intracellular content of NGF ([3]; guanosine, 6 and 12 hours): increased the intracellular content of NGF and TGFβ2 in time-dependent fashion
intracellular content of TGFβ2 ([4]; guanosine, 6 and 12 hours): increased the intracellular content of NGF and TGFβ2 in time-dependent fashion
